Reference: US9388153B2, “Secondary amines as therapeutic agents” (Allergan, Inc., priority 2013, dated 2016)

Legend:
EP2 [1] = biological target: T1, EP2 (Homo sapiens, UniProt P43116); test: EP2 cAMP functional assay; assay type: cell-based; details: NA = Not Active
Text: (§1) U.S. patent application publication No. 20070129552, published on Jun. 7, 2007, incorporated by reference herein, describes the methods used to obtain the in vitro data in Table 1 below.

EP4 = EP4 (Homo sapiens, UniProt P35408); test: EP4 binding (KI); details: NA = Not Active; read-out: EP4 data (EC50 in nM) KI
Sequence of EP4 (P35408 whole entry): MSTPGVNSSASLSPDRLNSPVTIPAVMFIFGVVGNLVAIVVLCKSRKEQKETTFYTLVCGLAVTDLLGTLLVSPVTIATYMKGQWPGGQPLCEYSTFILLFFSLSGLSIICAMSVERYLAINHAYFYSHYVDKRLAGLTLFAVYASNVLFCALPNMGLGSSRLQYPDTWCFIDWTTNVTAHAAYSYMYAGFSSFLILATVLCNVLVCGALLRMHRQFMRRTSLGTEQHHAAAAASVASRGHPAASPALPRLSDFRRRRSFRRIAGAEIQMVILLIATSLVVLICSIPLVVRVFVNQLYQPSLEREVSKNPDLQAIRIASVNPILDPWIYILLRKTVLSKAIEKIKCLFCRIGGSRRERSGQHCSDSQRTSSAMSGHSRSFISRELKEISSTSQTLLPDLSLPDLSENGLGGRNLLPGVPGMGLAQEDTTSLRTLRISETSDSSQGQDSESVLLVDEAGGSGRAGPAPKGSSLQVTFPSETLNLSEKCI
Text: as §1

EP2 [2] = biological target: T1, EP2; test: EP2 binding (Ki); details: NA = Not Active; read-out: EP2 Data (EC50 in nM) Ki
Text: as §1

T1 sequence (P43116 whole entry): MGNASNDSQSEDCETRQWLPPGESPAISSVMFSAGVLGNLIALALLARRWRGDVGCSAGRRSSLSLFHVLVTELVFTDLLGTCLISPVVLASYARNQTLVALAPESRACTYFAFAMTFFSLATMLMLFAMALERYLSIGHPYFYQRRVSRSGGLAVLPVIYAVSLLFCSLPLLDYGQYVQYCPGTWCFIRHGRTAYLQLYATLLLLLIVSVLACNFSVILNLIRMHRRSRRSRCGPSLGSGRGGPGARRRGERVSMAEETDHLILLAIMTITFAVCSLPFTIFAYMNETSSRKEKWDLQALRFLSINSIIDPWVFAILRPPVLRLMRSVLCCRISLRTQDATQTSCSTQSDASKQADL

Row | SMILES | EC50 (EP2 [1]) [nM] | Ki (EP4) [nM] | Ki (EP2 [2]) [nM]
1 | CN(c1cccc(OCC(=O)O)c1)C1CCc2ccc(-c3cccc(F)c3)cc21 (stereo not drawn) [Example 3, 2-(3-((6-(3-Fluorophenyl)-2,3-dihydro-1H-inden-1-yl)(methyl)amino)phenoxy)acetic acid] | 697 | 7320 | 1810
2 | O=C(O)COc1cccc(OC2CCc3ccc(-c4cccc(F)c4)cc32)c1 (stereo not drawn) [Example 5, 2-(3-((6-(3-Fluorophenyl)-2,3-dihydro-1H-inden-1-yl)oxy)phenoxy)acetic acid] | 747 | – | 144
3 | OCCOc1cccc(NC2CCCc3ccc(-c4cccc(F)c4)cc32)c1 (stereo not drawn) [Example 7, 2-(3-((7-(3-Fluorophenyl)-1,2,3,4-tetrahydronaphthalen-1-yl)amino)phenoxy)ethanol] | – | 6280 | –

Further lines, results first:

Row | EC50 (EP2 [1]) [nM] | Ki (EP4) [nM] | Ki (EP2 [2]) [nM] | SMILES
4 | 11 | 3050 | 80 | O=C(O)COc1cccc(NC2CCc3ccc(-c4cccc(F)c4)cc32)c1 (stereo not drawn) [Example 1, 2-(3-((6-(3-Fluorophenyl)-2,3-dihydro-1H-inden-1-yl)amino)phenoxy)acetic acid]
5 | 8300 | 6640 | 3940 | CCN(c1cccc(OCC(=O)O)c1)C1CCc2ccc(-c3cccc(F)c3)cc21 (stereo not drawn) [Example 4, 2-(3-(Ethyl(6-(3-fluorophenyl)-2,3-dihydro-1H-inden-1-yl)amino)phenoxy)acetic acid]
6 | 438 | 3630 | 104 | O=C(O)COc1cccc(NC2CCCc3ccc(-c4cccc(F)c4)cc32)c1 (stereo not drawn) [Example 6, 2-(3-((7-(3-Fluorophenyl)-1,2,3,4-tetrahydronaphthalen-1-yl)amino)phenoxy)acetic acid]
7 | 0.6 | 7990 | 13 | O=C(O)COc1cccc(NC2COc3ccc(-c4cccc(F)c4)cc32)c1 (stereo not drawn) [Example 8, 2-(3-((5-(3-Fluorophenyl)-2,3-dihydrobenzofuran-3-yl)amino)phenoxy)acetic acid]
